Measured values as given in patent US8852656B2, “Sleep improvement composition” (Taiyokagaku Co., Ltd., priority 2004, dated 2014).

Experiments:
rat = settings: administered to a rat; cited from earlier work
[1] = reported, Patent Document 1; cited from earlier work
mice = format: in vivo; settings: oral administration of 5 g/kg
Excerpt: In particular, theanine is known as a “umami” component of tea, is used as a food additive for providing flavor, and the Food Sanitation Law places no restrictions in addition amount.

SMILES: CC/C=C\C/C=C\C/C=C\C/C=C\C/C=C\C/C=C\CCC(=O)O[C@H](COC(=O)CCCCCCC/C=C\CCCCCCCC)COP(=O)([O-])OCC[N+](C)(C)C [1-oleoyl-2-DHA-sn-3-phosphocholine]
- Effect on sleep (rat): the total sleeping time within 24 hours, the REM sleeping time, and the REM sleeping time with respect to the total sleeping time are increased

SMILES: C[C@@H]1CC[C@H]2C(C)(C)[C@H]3C[C@@]12CC[C@@]3(C)O [cedrol]
- Effect on sleep [1]: elongate the total sleeping time, shorten the sleep latency time, and increase the sleep efficiency

SMILES: CCNC(=O)CC[C@H](N)C(=O)O [theanine]
- Death in acute toxicity test (mice): no cases of death
